Data from PubChem BioAssay (NCI).
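GI50 marks 50% less growth. TGI denotes the concentration required for complete inhibition of growth.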

Experiments:
Assay in all cases: NCI anticancer screen, dose series, 384-well format
[1] = test system: K-562 leukemia
[2] = test system: SR leukemia
[3] = test system: U251 glioblastoma
[4] = test system: SNB-19 CNS
[5] = test system: CCRF-CEM leukemia
[6] = test system: MALME-3M melanoma
[7] = test system: MDA-MB-231 breast
[8] = test system: NCI-H226 lung
[9] = test system: HOP-62 NSCLC
[10] = test system: MOLT-4 leukemia
[11] = test system: TK-10 renal
[12] = test system: SF-539 CNS
[13] = test system: NCI/ADR-RES ovarian
[14] = test system: PC-3 prostate
[15] = test system: NCI-H322M lung
[16] = test system: T-47D breast
[17] = test system: MDA-MB-468 breast
[18] = test system: MDA-MB-435 melanoma
[19] = test system: SK-MEL-28 melanoma
[20] = test system: HCT-15 colon
[21] = test system: HOP-92 NSCLC
[22] = test system: M14 melanoma
[23] = test system: A498 renal
[24] = test system: A549 NSCLC
[25] = test system: EKVX NSCLC
[26] = test system: OVCAR-4 ovarian
[27] = test system: 786-0 renal
[28] = test system: SF-295 CNS
[29] = test system: ACHN renal
[30] = test system: UACC-257 melanoma
[31] = test system: IGROV1 ovarian
[32] = test system: NCI-H23 lung
[33] = test system: COLO 205 colon
[34] = test system: HCC-2998 colon
[35] = test system: NCI-H522 lung
[36] = test system: DU-145 prostate
[37] = test system: SNB-75 CNS
[38] = test system: RXF 393 renal
[39] = test system: KM12 colon
[40] = test system: OVCAR-3 ovarian
[41] = test system: HT29 colon
[42] = test system: LOX IMVI melanoma
[43] = test system: SW-620 colon
[44] = test system: SF-268 CNS
[45] = test system: UO-31 renal
[46] = test system: HS 578T breast
[47] = test system: RPMI-8226 leukemia
[48] = test system: UACC-62 melanoma
[49] = test system: CAKI-1 renal
[50] = test system: SN12C renal
[51] = test system: HL-60(TB) leukemia
[52] = test system: NCI-H460 NSCLC
[53] = test system: SK-OV-3 ovarian
[54] = test system: BT-549 breast
[55] = test system: SK-MEL-5 melanoma
[56] = test system: OVCAR-5 ovarian
[57] = test system: OVCAR-8 ovarian
[58] = test system: MCF7 breast

## NC(N)=Nc1ccc(-n2nc(C(F)(F)F)cc2-c2ccc3c(ccc4ccccc43)c2)cc1
[1]
  GI50: 1570 nM
  TGI: 2920 nM
[2]
  GI50: 765 nM
  TGI: 2020 nM
[3]
  GI50: 1840 nM
  TGI: 3270 nM
[4]
  GI50: 1770 nM
  TGI: 3170 nM
[5]
  GI50: 1110 nM
  TGI: 2310 nM
[6]
  GI50: 1650 nM
  TGI: 3020 nM
[7]
  GI50: 1570 nM
  TGI: 2930 nM
[8]
  GI50: 1640 nM
  TGI: 3010 nM
[9]
  GI50: 1770 nM
  TGI: 3170 nM
[10]
  GI50: 1440 nM
  TGI: 2750 nM
[11]
  GI50: 1810 nM
  TGI: 3210 nM
[12]
  GI50: 1860 nM
  TGI: 3270 nM
[13]
  GI50: 2380 nM
  TGI: 4830 nM
[14]
  GI50: 1720 nM
  TGI: 3110 nM
[15]
  GI50: 1650 nM
  TGI: 3020 nM
[16]
  GI50: 1760 nM
  TGI: 3150 nM
[17]
  GI50: 2020 nM
  TGI: 3450 nM
[18]
  GI50: 1850 nM
  TGI: 3260 nM
[19]
  GI50: 1780 nM
  TGI: 3170 nM
[20]
  GI50: 1530 nM
  TGI: 2890 nM
[21]
  GI50: 1390 nM
  TGI: 2700 nM
[22]
  GI50: 1740 nM
  TGI: 3140 nM
[23]
  GI50: 1550 nM
  TGI: 2900 nM
[24]
  GI50: 1740 nM
  TGI: 3130 nM
[25]
  GI50: 1720 nM
  TGI: 3100 nM
[26]
  GI50: 1610 nM
  TGI: 2970 nM
[27]
  GI50: 1620 nM
  TGI: 2980 nM
[28]
  GI50: 1840 nM
  TGI: 3250 nM
[29]
  GI50: 1840 nM
  TGI: 3250 nM
[30]
  GI50: 1950 nM
  TGI: 3370 nM
[31]
  GI50: 1820 nM
  TGI: 3230 nM
[32]
  GI50: 1630 nM
  TGI: 2990 nM
[33]
  GI50: 1300 nM
  TGI: 2580 nM
[34]
  GI50: 736 nM
  TGI: 2030 nM
[35]
  GI50: 1780 nM
  TGI: 3180 nM
[36]
  GI50: 1850 nM
  TGI: 3270 nM
[37]
  GI50: 1760 nM
  TGI: 3150 nM
[38]
  GI50: 1590 nM
  TGI: 2930 nM
[39]
  GI50: 1470 nM
  TGI: 2800 nM
[40]
  GI50: 1840 nM
  TGI: 3260 nM
[41]
  GI50: 1740 nM
  TGI: 3140 nM
[42]
  GI50: 1530 nM
  TGI: 2870 nM
[43]
  GI50: 1820 nM
  TGI: 3230 nM
[44]
  GI50: 1830 nM
  TGI: 3240 nM
[45]
  GI50: 1780 nM
  TGI: 3200 nM
[46]
  GI50: 1770 nM
  TGI: 3160 nM
[47]
  GI50: 1310 nM
  TGI: 2590 nM
[48]
  GI50: 1740 nM
  TGI: 3130 nM
[49]
  GI50: 1740 nM
  TGI: 3140 nM
[50]
  GI50: 1810 nM
  TGI: 3220 nM
[51]
  GI50: 838 nM
  TGI: 2070 nM
[52]
  GI50: 1690 nM
  TGI: 3070 nM
[53]
  GI50: 1620 nM
  TGI: 2980 nM
[54]
  GI50: 1750 nM
  TGI: 3140 nM
[55]
  GI50: 1830 nM
  TGI: 3220 nM
[56]
  GI50: 1880 nM
  TGI: 3290 nM
[57]
  GI50: 1830 nM
  TGI: 3230 nM
[58]
  GI50: 1250 nM
  TGI: 2520 nM
